Reference: publication PMC11314410, “Synthesis and Anti-Trypanosoma cruzi Activity of New Pyrazole-Thiadiazole Scaffolds” (Molecules, 2024)
Where two headings read alike, the source gives them in different places.

Legend:
[1] = Cardiac toxicity in 2D cardiac monolayers (CellTiter-Glo, 72 h); type: cell-based, Swiss webster mice; conditions: Swiss webster, mouse, primary cardiac muscle cell monolayers (2D culture), ATP levels
Method: The primary culture of heart muscle cells was obtained from fetuses of Swiss webster mice. The heart was removed and the ventricles were fragmented and subjected to dissociation with trypsin and collagenase type II (Worthington Biochemical Corporation, Lakewood, USA) dissociation solution. Cell monolayers were employed to evaluate drug-induced cardiotoxicity.
(§1) The 2D cardiac cultures (5 × 10^4 cells/well) and 3D cardiac microtissues (2.5 × 10^4 cells/well) were incubated for 72 h at 37 °C with pyrazole-thiadiazole candidates followed by ATP detection by CellTiter-Glo [86]. A minimum of 3 independent assays were performed in duplicate.

[2] = system: Vero cells; assay: Toxicity in mammalian cells (CellTiter Glo, 72 h); type: cell-based
Method: (§2) Vero cell cultures grown in RPMI 1640 medium containing 10% fetal bovine serum (FBS) were cultured at 37 °C in a humidified atmosphere of 5% CO2 [82]. The cultures were used for drug screening assays and to obtain culture-derived trypomastigotes of T. cruzi.
(§3) Vero cells (1.5 ×10^4 cells/well), cultivated for 24 h at 37 °C in white 96-well plates with clear bottoms, were used to assess the toxicity of the pyrazole-thiadiazole derivatives (series 1 and 2). After washing, the cells were incubated for 72 h at 37 °C with different drug concentrations (500–1.95 μM). Cell viability was measured by adding 20 μL/well of CellTiter Glo reagent (Promega Corporation, Madison, WI, USA). This cell viability kit generates a luminescent signal proportional to the amount of ATP. The luminescence readout was performed using the Glomax Microplate Reader (Promega Corporation, Madison, WI, USA). Thus, the 50% cytotoxicity concentration (CC50), which reduces the cell viability by 50% (CC50), was calculated with Prism GraphPad software (version 8.2.1).

[3] = Toxicity in mammalian cells (CellTiter Glo, 72 h); type: cell-based; conditions: African green monkey, Vero cells; 72 h, ATP levels; read-out: Cytotoxicity Vero Cells CC50
Method: as §2, §3

[4] = system: T. cruzi (Dm28c-Luc) intracellular parasites in 3D cardiac spheroids; assay: Antiparasitic activity in T. cruzi-infected 3D cardiac microtissues; type: cell-based, Trypanosoma cruzi; conditions: 72 h; for inhibition at 100 µM: Trypanosoma cruzi, read-out: Inhibition of parasite load in 3D cardiac microtissue
Method: (§4) Three-dimensional (3D) cardiac cells were obtained as previously described. Briefly, isolated cardiac muscle cells (2.5 × 10^4 cells/well) were seeded in 96-well U-bottom plates coated with agarose (1%) to form cell aggregates. Cardiac microtissue (7 days in culture) was employed to determine cardiotoxicity and drug efficacy in more complex systems. All animal-use procedures were approved by the Animal Care and Use Committee of Instituto Oswaldo Cruz (license L017/2022-A2).
Cardiac spheroids (2.5 × 10^4 cells/well), formed after 7 days of cultivation in a U-bottom plate, were infected for 24 h with trypomastigote forms of T. cruzi (Dm28c-Luc) at a ratio of 20:1 parasite-host cell. After washing, the drugs were added at concentrations of IC90, two times IC90, and 100 µM, respecting the CC20 value of cardiac spheroids as the maximum concentration. Bz was added at 100 µM. Luminescence measurements, which reveal the luciferase activity of the viable parasites, were performed after the addition of D-luciferin substrate (300 µg/mL). The luminescent signal was read in the Glomax reader and the results were represented in arbitrary luminescence units (ALU). The fluorescence microscopy images were also acquired from untreated and drug-treated infected 3D microtissues. Three-dimensional cultures were fixed with 4% paraformaldehyde in PBS and labeled with 4′,6-diamidino-2-phenylindole (DAPI). Images were acquired using a Zeiss Axio Imager M2 fluorescence microscope using Axio vision software (version 4.8).

[5] = system: Intracellular amastigotes of T. cruzi (Dm28c-Luc); assay: microbe, parasite or virus in culture; type: cell-based, Trypanosoma cruzi; conditions: for IC50 / IC90: Trypanosoma cruzi; for IC90: read-out: Anti-T. cruzi Activity Intracellular Amastigotes IC90
Method: (§5) Genetically modified T. cruzi parasites, of clone Dm28c (TcI) expressing the firefly luciferase enzyme gene (Dm28c-Luc), were kindly provided by Dr. Cristina Henriques. T. cruzi Dm28c-Luc was maintained in a Vero cell cultivated in RPMI 1640 medium supplemented with 10% FBS. At 4-day post-infection (dpi), trypomastigotes, released in the cell culture supernatant, were harvested, followed by sedimentation (4000 rpm/20 min/4 °C) and quantification in a Neubauer chamber. Isolated trypomastigotes were used in the phenotypic screening assays as well as the antiparasitic activity in 3D cardiac microtissues, recovery (washout), and drug combination assays.
The activity of pyrazole-thiadiazole derivatives against intracellular amastigotes was evaluated in 24 h-T. cruzi infected Vero cell cultures (1.5 × 10^4 cells/well) at a 10:1 ratio. The cultures were washed and incubated with serial dilutions of the derivatives or Bz (100–0.41 µM). Drug treatment was carried out for 72 h at 37 °C and the parasite viability was determined by luminescence readout after D-Luciferin substrate addition (300 µg/mL). The reading was performed in the Glomax reader. The cell cultures incubated with the culture medium containing dimethylsulphoxide (DMSO; concentration ≤ 1%) were used as the […]. The concentrations required to inhibit parasite viability by 50% (IC50) and 90% (IC90) were calculated using Prism GraphPad software (version 8.2.1). The selectivity index (SI), which measures the window between cytotoxicity (CC50) and anti-T. cruzi activity (IC50), was calculated as CC50/IC50. A minimum of 3 independent assays in duplicate were performed.

[6] = Cardiac toxicity in 3D cardiac spheroids (CellTiter-Glo, 72 h); type: cell-based, Swiss webster mice; conditions: Swiss webster, mouse, 3D cardiac microtissue (cardiac spheroids), ATP levels, read-out: Toxicity CC50 3D Culture
Method: as §4, §1

[7] = system: T. cruzi (Dm28c-Luc) in Vero cell cultures; assay: Washout (recovery) assay in T. cruzi-infected Vero cell cultures; type: cell-based, Trypanosoma cruzi; conditions: for ALUmean of parasite load in cell monolayer, washout assay: 10 days treatment + 10 days without drug; for inhibition at 150 µM: Trypanosoma cruzi, Vero
Method: The culture medium of the untreated and treated infected cultures was replaced every 3 or 4 days by a fresh medium with or without the pyrazole-thiadiazole derivatives. The presence of free viable parasites in the culture supernatant was monitored at each medium change by adding luciferin (300 µg/mL) followed by readout on a Glomax microplate reader. At the endpoint, culture supernatants and cell monolayers were evaluated for viable parasites. Positive and negative controls were performed using Bz (150 µM) and DMSO (≤1%), respectively. A minimum of 3 independent experimental runs were performed with 12 replicates.

[8] = system: Trypomastigotes of T. cruzi (Dm28c-Luc); assay: microbe, parasite or virus in culture; type: cell-based, Trypanosoma cruzi; conditions: for IC50 / IC90: Trypanosoma cruzi, Dm28c-Luc, 24 h treatment; for IC50: mean ± SD, read-out: Anti-T. cruzi Activity Trypomastigotes IC50; for IC90: read-out: Anti-T. cruzi Activity Trypomastigotes IC90
Method: as §5
Drug screening was performed against clinically relevant forms of T. cruzi (amastigotes and trypomastigotes). Trypomastigotes, Dm28c-Luc (1 × 10^6 parasites/well), were added to 96-well plates and incubated with pyrazole-thiadiazole derivatives or Bz (100–0.41 µM). After 24 h of treatment (37 °C), the viability of the parasites was analyzed by adding a D-Luciferin solution (300 µg/mL) and luminescence was measured in the Glomax microplate reader.

[9] = system: T. cruzi in 3D cardiac spheroids; design: method as in PMID 33383023; conditions: 10 µM; cited from earlier work
[10] = system: T. cruzi infection of HeLa spheroids; design: method as in PMID 36099853; conditions: 40 µM pretreatment of HeLa spheroids; cited from earlier work
[11] = Vero, read-out: Intracellular Amastigotes pIC50 (converted)
[12] = Dm28c-Luc in Vero cells, 72 h treatment, mean ± SD, read-out: Anti-T. cruzi Activity Intracellular Amastigotes IC50
[13] = Dm28c-Luc in Vero cells, 72 h treatment, mean ± SD

Row | Structure (SMILES) | CC50 at 72 h [1] [µM] | CC50 at 72 h [3] [µM] | ALUmean (luminescence, parasite load) in 3D cardiac microtissue ([4]; 100 µM) [ALU] | IC50 [5, 11] [µM] | IC50 [5, 12] [µM] | IC90 [5, 13] [µM] | CC50 at 72 h [6] [µM] | ALUmean of parasite load in cell monolayer, washout assay ([7]; 150 µM) [ALU] | Trypomastigotes SI (CC50 of Vero cells/IC50 of trypomastigotes) [8] | IC90 [8] [µM] | also measured
1 | Nc1nnc(-c2cnn(-c3ccc([N+](=O)[O-])cc3)c2N)s1 [2k, 5-Amino-2-(5-amino-1-(4-nitrophenyl)-1H-pyrazol-4-yl)-1,3,4-thiadiazole] | 191 ± 21 | > 500 | 5366 ± 2348 | 10.5 | 10.4 ± 1.21 | 23.2 ± 4.23 | > 500 | 4845 ± 2419 | >5 | > 100 | CC20 for Vero cell monolayers [2]: > 500 µM; inhibition at 100 µM ([4]; 100 µM, vs infected untreated): 86%; melting point: 321 to 323 °C; Activity relative to 1c in cell monolayer, washout assay ([7]; 150 µM): 11.8 times; Activity relative to 1c in cell monolayer, washout assay ([7]; 300 µM): 19.8 times; Reduction of parasite release vs untreated infected group ([7]; 300 µM, 14 dpi): 93%; ALUmean of parasite load in cell monolayer, washout assay ([7]; 300 µM): 3349 ± 1767 ALU; Prevention of reactivation of infection after drug withdrawal ([7]; washout assay): did not prevent parasite recrudescence; IC50 ([8]; 24 h): > 100 µM
2 | O=C(Cn1ccnc1[N+](=O)[O-])NCc1ccccc1 [Bz, benznidazole, reference compound] | > 500 | > 500 | 3520 ± 2198 | 3.63 | 3.61 ± 1.25 | 11.5 ± 4.17 | > 500 | 3426 ± 1727 | >38.88 | > 100 | Reduction of parasite load [9]: 92%; inhibition at 100 µM [4]: 91%; Intracellular Amastigotes SI (CC50 of Vero cells/IC50 of intracellular amastigotes) [5]: >158.23; inhibition at 150 µM ([7]; read-out: Inhibition in the release of trypomastigotes): 77%; inhibition at 150 µM ([7]; read-out: Inhibition of parasite release): 82%; IC50 [8]: 12.8 ± 2.66 µM
3 | Oc1ccc(/C=C/c2cc(O)cc(O)c2)cc1 [resveratrol] |  |  |  |  |  |  |  |  |  |  | Reduction of T. cruzi infection level [10]: 50%
